Laboratory results: US5445941A, “Method for screening anti-osteoporosis agents” (Eli Lilly and Company, priority 1993, dated 1995)
pEC50: −log10 of the molar value. Entries after “also recorded” stand apart in the source; their conditions may differ. Where a name gives a salt, the structure may show the parent alone. Read-outs that look alike come from different tables or passages of the source.

What was measured:
TGFβ-3 promoter [1] = assay: Comparative induction of reporter gene from TGFβ-3 promoter (pB-301, pRSVER, MG63) by raloxifene and related compounds; type: cell-based, human; settings: for reporter gene expression: 0 M 0.61; for induction of reporter gene expression (in words): MG63 cells
uterotropic activity = settings: ovariectomized rats; cited from earlier work
TGFβ-3 promoter [2] = assay: Dose response of TGFβ-3 promoter (pB-301) CAT induction in MG63 cells with pRSVER; settings: for CAT activity: 24 h, vehicle 0.85
Procedure: For each group of twelve cultures, the particular estrogen or antiestrogen compound was tested in replicate cultures at […], varying in tenfold increments from 10^-9 M to 10^-5 M, as well as one set of replicate cultures treated with vehicle only (for a total of twelve cultures per experimental treatment). Hormones were dissolved in ethanol and applied to the cultures in media as described above. The four estrogens and antiestrogens tested were:
a. 17β-estradiol (Sigma Chemical Corp., St. Louis, Mo.);

[3] = test system: osteoblasts and osteoclasts; settings: cited from earlier work
[4] = test system: mesenchymal cells and epithelial cells; fibroblasts, macrophages and smooth muscle cells; settings: cited from earlier work
[5] = test system: human endometrial cancer cell line (Ishikawa); settings: cited from earlier work
[6] = test system: human endometrial cancer cell line (HEC-50); settings: cited from earlier work
[7] = test system: estrogen responsive elements; settings: in vitro; cited from earlier work
[8] = test system: TGFβ secretion by human fetal fibroblasts; settings: absence of estrogen receptor; cited from earlier work
[9] = test system: osteoblast enriched bone cell cultures; settings: relative to TGFβ-1; cited from earlier work
TGFβ-3 promoter [10] = assay: CAT reporter expression, TGFβ-3 promoter (pB-499), MG63 cells cotransfected with pRSVER
Procedure: (§1) Co-transfection experiments were performed in MG63 (human osteosarcoma) cells, using the ProFection Mammalian Transfection System (Promega). […] The cells were then refed with fresh 3:1 media containing 10% csFBS. Compounds to be evaluated for their ability to modulate reporter gene expression were added at the appropriate times and assayed as described below.
(§2) Cultures of MG63 cells were transiently co-transfected with pRSVER plasmid and either phTG12, pTGF-1, or pB2-499 using the ProFection system (Promega). For each transfected cell culture, DNA-containing calcium phosphate precipitates were added dropwise to each culture dish and mixed thoroughly in the media. The pH of the media was carefully maintained between pH 7.2 and pH 7.4. Transfected cell cultures were then incubated overnight in a 5% CO2 atmosphere at 37° C. For all cultures, the precipitate was removed after overnight incubation by aspirating the media from the culture dishes, followed by rinsing each dish twice with D-PBS. For each cotransfected cell line, the buffer was replaced with 10 ml fresh medium containing 10% csFBS and one of the following compositions:
(§3) a. 10 μl ethanol (hormone vehicle)=control;
(§4) b. 10 μl 17β-estradiol (Sigma) ("estradiol") at a concentration of 10^-4 M in ethanol;
(§5) d. 10 μl Tamoxifen (Sigma) at a concentration of 10^-4 M in ethanol.
(§6) After 24 h incubation with these hormonal preparations (or the vehicle control), cells were washed twice with D-PBS. The cells were then scraped from the culture dishes using a rubber policeman and 1 ml of D-PBS. Cells were collected by centrifugation at 8,000 rpm for 2 minutes in a tabletop centrifuge (MicroMax Model, IEC, Newark, N.Y.). The supernatant was removed and the cell pellets were resuspended in 150 μL of a 0.25M Tris-HCl solution (pH 7.8). Cells were lysed by three cycles of freezing in a dry ice/ethanol bath and thawing in a water bath at 37° C. water bath (for 3 minutes each cycle). Lysed cell preparations were centrifuged at 15,000 rpm for 5 minutes at 4° C. to remove cell debris. Supernatants containing the soluble cell lysate were transferred to a new set of tubes for assaying chloramphenicol acetyltransferase (CAT) activity.
(§7) Before performing CAT assays on such cell lysates, the protein content of each lysate was first determined using a commercially-available assay (BioRad Laboratories, Richmond, Calif.). […]

[11] = cited from earlier work; for bone density (in words): breast cancer patients
TGFβ-1 promoter = assay: CAT reporter expression, TGFβ-1 promoter (phTG12), MG63 cells cotransfected with pRSVER
Procedure: as §1, §2, §3, §4, §5, §6
Before performing CAT assays on such cell lysates, the protein content of each lysate was first determined using a commercially-available assay (BioRad Laboratories, Richmond, Calif.). An amount of each cell lysate containing 100 μg total protein was then mixed with CAT assay buffer (0.4M Tris-HCl (pH 7.8)/ 0.5 mM acetyl-CoA (Boehringer Mannheim)/ 0.1 μCi D-threo-(dichloroacetyl-1,2-[^14 C]-chloramphenicol) for 15 hours. After this incubation, reactions were stopped by vigorously extracting the reaction mixture with 900 μL ethyl acetate. The organic and aqueous phases were separated by brief centrifugation at 14,000 rpm for 1 minute, and approximately 800 μL of the organic phase was transferred to a new set of tubes. Ethyl acetate was evaporated to concentrate the CAT-catalyzed reaction products.
Acetylated and unacetylated chloramphenicol species were resolved by thin layer chromatography using a mixture of 95:5 (v/v) chloroform:methanol as the ascending buffer.

TGFβ-2 mRNA = settings: T-47D and MDA-MB-231; cited from earlier work
TGFβ-2 promoter = assay: CAT reporter expression, TGFβ-2 promoter (pTGF-1), MG63 cells cotransfected with pRSVER
Procedure: as §1, §2, §3, §4, §5, §6, §7

TGFβ-1 = settings: three months of treatment; cited from earlier work
[12] = Homo sapiens, MG-63, 24 h, read-out: Fold Ind.

Compound: p-hydroxyphenyl3-(-hydroxyphenyl)benzo[B]thien-2-yl ketone [LY98005]
- reporter gene expression (TGFβ-3 promoter [1]; 10^-5 M): 0.5
- reporter gene expression (TGFβ-3 promoter [1]; 10^-6 M): 0.4
- reporter gene expression (TGFβ-3 promoter [1]; 10^-7 M): 0.5
- reporter gene expression (TGFβ-3 promoter [1]; 10^-8 M): 0.5
- reporter gene expression (TGFβ-3 promoter [1]; 10^-9 M): 0.4
- induction of reporter gene expression (in words) (TGFβ-3 promoter [1]): no induction
- in vivo uterotropic activity (in words) (uterotropic activity): inert in vivo

Compound: O=C(c1ccc(OCCN2CCCCC2)cc1)c1c(-c2ccc(O)cc2)sc2cc(O)ccc12 [raloxifene]
- ED50 (in words) (TGFβ-3 promoter [2]; MG63 cells): nanomolar concentrations

Compound: O=C(c1ccc(OCCN2CCCCCC2)cc1)c1c(-c2ccc(O)cc2)sc2cc(O)ccc12 [LY139482, [4-[2-(hexahydro-1H-azepin-1-yl)ethoxy]phenyl][6-hydroxy-2-(4-hydroxyphenyl)benzo[B]thien-3-yl]methanone]
- reporter gene expression (TGFβ-3 promoter [1]; 10^-5 M): 2.0
- reporter gene expression (TGFβ-3 promoter [1]; 10^-6 M): 2.5
- reporter gene expression (TGFβ-3 promoter [1]; 10^-7 M): 2.7
- reporter gene expression (TGFβ-3 promoter [1]; 10^-8 M): 2.5
- reporter gene expression (TGFβ-3 promoter [1]; 10^-9 M): 0.8
- in vivo uterotropic activity (in words) (uterotropic activity): anti-uterotropic

Compound: CCCCN(C)C(=O)CCCCCCCCCC[C@@H]1Cc2cc(O)ccc2[C@H]2CC[C@]3(C)[C@@H](O)CC[C@H]3[C@H]12 [ICI]
- CAT activity (TGFβ-3 promoter [2]; 10^-5 M): 6.5
- CAT activity (TGFβ-3 promoter [2]; 10^-6 M): 15.2
- CAT activity (TGFβ-3 promoter [2]; 10^-7 M): 10.9
- CAT activity (TGFβ-3 promoter [2]; 10^-8 M): 0.88
- CAT activity (TGFβ-3 promoter [2]; 10^-9 M): 0.89
- pEC50 (TGFβ-3 promoter [2]; Homo sapiens, MG-63, 24 h, read-out: ED50): 7.00
- TGFβ-3 promoter activation (in words) (TGFβ-3 promoter [2]; MG63 cells): much less active at high concentrations (10^-5 M)

Compound: TGFβ
- bone formation / osteoclast effects (in words) [3]: stimulate osteoblastic bone formation and to inhibit osteoclast formation and osteoclast activities
- cell growth, biosynthesis and chemotaxis (in words) [4]: inhibits the growth of mesenchymal cells and epithelial cells; also recorded: induces biosynthesis of proteoglycans, fibronectins and plasminogen activator; also recorded: chemotactic for fibroblasts, macrophages and smooth muscle cells
- cell division (in words) [5]: repressed division
- mitogenic effect (in words) [6]: mitogenic

Compound: COc1ccc(C2=C(C(=O)c3ccc(OCCN4CCCC4)cc3)c3ccccc3CC2)cc1 [LY133314, [3,4-dihydro-2-(4-methoxyphenyl)-1-naphthanlenyl][4-[2-(1-pyrrolidinyl)ethoxy]phenyl]methanone, methanesulfonic acid salt]
- reporter gene expression (TGFβ-3 promoter [1]; 10^-5 M): 1.0
- reporter gene expression (TGFβ-3 promoter [1]; 10^-6 M): 6.6
- reporter gene expression (TGFβ-3 promoter [1]; 10^-7 M): 3.1
- reporter gene expression (TGFβ-3 promoter [1]; 10^-8 M): 0.7
- reporter gene expression (TGFβ-3 promoter [1]; 10^-9 M): 0.7
- in vivo uterotropic activity (in words) (uterotropic activity): uterotropic

Compound: O=C(c1ccc(OCCN2CCCC2)cc1)c1c(-c2ccc(O)cc2)sc2ccccc12 [LY113526, 2-(p-hydroxyphenyl)benzo[B]thien-3-YL p-[2-(1-pyrrolidinyl)ethoxy]phenyl ketone]
- reporter gene expression (TGFβ-3 promoter [1]; 10^-5 M): 2.1
- reporter gene expression (TGFβ-3 promoter [1]; 10^-6 M): 2.0
- reporter gene expression (TGFβ-3 promoter [1]; 10^-7 M): 0.6
- reporter gene expression (TGFβ-3 promoter [1]; 10^-8 M): 0.7
- reporter gene expression (TGFβ-3 promoter [1]; 10^-9 M): 0.7
- in vivo uterotropic activity (in words) (uterotropic activity): anti-uterotropic

Compound: CC/C(=C(\c1ccc(O)cc1)c1ccc(OCCN(C)C)cc1)c1ccccc1 [hydroxytamixofen]
- binding of estrogen receptor complex to estrogen responsive elements (in words) [7]: bind in vitro to DNA binding domains called estrogen responsive elements

Compound: CN(C)CCOc1ccc(/C(=C(/CCCl)c2ccccc2)c2ccccc2)cc1 [toremifene]
- TGFβ secretion (in words) [8]: induce human fetal fibroblasts to secrete TGFβ

Compound: O=C(c1ccc(O)cc1)c1sc2ccc(O)cc2c1-c1ccccc1 [LY112676, (p-hydroxyphenyl) 5-hydroxy-3-phenylbenzo[B]thien-2-yl ketone]
- reporter gene expression (TGFβ-3 promoter [1]; 10^-5 M): 3.8
- reporter gene expression (TGFβ-3 promoter [1]; 10^-6 M): 1.7
- reporter gene expression (TGFβ-3 promoter [1]; 10^-7 M): 0.5
- reporter gene expression (TGFβ-3 promoter [1]; 10^-8 M): 0.6
- reporter gene expression (TGFβ-3 promoter [1]; 10^-9 M): 0.6
- in vivo uterotropic activity (in words) (uterotropic activity): uterotropic

Compound: TGFβ-3: isoform of transforming growth factor β
- mitogenesis, collagen synthesis and alkaline phosphatase activity (in words) [9]: three to five fold higher rate than TGFβ-1

Compound: CC/C(=C(\c1ccccc1)c1ccc(OCCN(C)C)cc1)c1ccccc1 [tamoxifen]
- fold induction at 0.1 µM (TGFβ-3 promoter [10]; [12]): 2.6
- Act. (relative CAT activity) (TGFβ-3 promoter [10]; TGFβ-3 promoter, 10 μl of 10^-4 M in 10 ml medium, 24 h, control 0.7): 1.9
- bone density (in words) [11]: appear to be restricted to the lumbar spine, with bone loss being reported in the radius in some breast cancer patients
- bone density (in words) ([11]; listed as Tamoxifen): increase bone density in breast cancer patients
- serum cholesterol (in words) ([11]; healthy women and women with breast cancer): reduce the growth the serum cholesterol
- growth of breast tumors (in words) ([11]; human, in vivo): reduce the growth of breast tumors
- serum concentration of LDLs (in words) ([11]; human, in vivo): reduce serum concentration of LDLs
- weight gain (in words) ([11]; post-menopausal women): contribute to weight gain
- fold induction at 0.1 µM (TGFβ-1 promoter; [12]): 1.1
- Act. (relative CAT activity) (TGFβ-1 promoter; TGFβ-1 promoter, 10 μl of 10^-4 M in 10 ml medium, 24 h, control […]): 6.9
- CAT activity (TGFβ-3 promoter [2]; 10^-5 M): 13.5
- CAT activity (TGFβ-3 promoter [2]; 10^-6 M): 2.9
- CAT activity (TGFβ-3 promoter [2]; 10^-7 M): 0.98
- CAT activity (TGFβ-3 promoter [2]; 10^-8 M): 1.2
- CAT activity (TGFβ-3 promoter [2]; 10^-9 M): 0.91
- TGFβ-3 promoter activation (in words) (TGFβ-3 promoter [2]; MG63 cells): activates the TGFβ-3 promoter only at high levels (i.e., greater than micromolar)
- TGFβ-2 mRNA expression (in words) (TGFβ-2 mRNA): did not exhibit the same effect
- fold induction at 0.1 µM (TGFβ-2 promoter; [12]): 2.6
- Act. (relative CAT activity) (TGFβ-2 promoter; TGFβ-2 promoter, 10 μl of 10^-4 M in 10 ml medium, 24 h, control 0.8): 2.0
- induction of extracellular TGFβ-1 (in words) (TGFβ-1): correlated with induction of extracellular TGFβ-1
- TGFβ secretion (in words) [8]: induce human fetal fibroblasts to secrete TGFβ

Compound: CC(C)(C)C(=O)Oc1ccc(-c2sc3cc(OC(=O)C(C)(C)C)ccc3c2C(=O)c2ccc(OCCN3CCCCC3)cc2)cc1 [LY177366, [6-(2,2-dimethyl-1-oxopropoxy)-2-[4-(2,2-dimethyl-1-oxopropoxy)phenyl]benzo[B]thien-3-yl][4-[2-1-piperidinyl)ethoxy]phenyl]methanone hydrochloride]
- reporter gene expression (TGFβ-3 promoter [1]; 10^-5 M): 6.1
- reporter gene expression (TGFβ-3 promoter [1]; 10^-6 M): 7.9
- reporter gene expression (TGFβ-3 promoter [1]; 10^-7 M): 10.2
- reporter gene expression (TGFβ-3 promoter [1]; 10^-8 M): 7.9
- reporter gene expression (TGFβ-3 promoter [1]; 10^-9 M): 1.1
- induction of reporter gene expression (in words) (TGFβ-3 promoter [1]): most potent inducer
- in vivo uterotropic activity (in words) (uterotropic activity): anti-uterotropic

Compound: O=C(c1ccc(O)cc1)c1sc2ccccc2c1-c1ccccc1 [LY81099, p-hydroxyphenyl 3-phenylbenzo[B]thien-2-yl ketone]
- reporter gene expression (TGFβ-3 promoter [1]; 10^-5 M): 2.3
- reporter gene expression (TGFβ-3 promoter [1]; 10^-6 M): 0.9
- reporter gene expression (TGFβ-3 promoter [1]; 10^-7 M): 0.7
- reporter gene expression (TGFβ-3 promoter [1]; 10^-8 M): 0.5
- reporter gene expression (TGFβ-3 promoter [1]; 10^-9 M): 0.6
- in vivo uterotropic activity (in words) (uterotropic activity): uterotropic
